Results: ChEMBL document CHEMBL1201862, “PubChem BioAssay data set” (2004)
One block for each compound: values may come before it. Calls of active or inactive are those of the source.

Columns and labels:
SUMO-activating enzyme = SUMO-activating enzyme (Homo sapiens, UniProt Q9UBT2); assay: blockers of UBC9-mediated SUMO conjugation – biochemical, AlphaScreen, SUMOylation inhibitor project, confirmation (AID 2018); type: functional
[1] = molecular target: T1, Calpain-2 catalytic subunit (Sus scrofa, UniProt P43367); assay: m-calpain protease blockers, concentration series – biochemical, fluorogenic peptide substrate, dose response (AID 1420); type: functional
T1 sequence (P43367 whole entry): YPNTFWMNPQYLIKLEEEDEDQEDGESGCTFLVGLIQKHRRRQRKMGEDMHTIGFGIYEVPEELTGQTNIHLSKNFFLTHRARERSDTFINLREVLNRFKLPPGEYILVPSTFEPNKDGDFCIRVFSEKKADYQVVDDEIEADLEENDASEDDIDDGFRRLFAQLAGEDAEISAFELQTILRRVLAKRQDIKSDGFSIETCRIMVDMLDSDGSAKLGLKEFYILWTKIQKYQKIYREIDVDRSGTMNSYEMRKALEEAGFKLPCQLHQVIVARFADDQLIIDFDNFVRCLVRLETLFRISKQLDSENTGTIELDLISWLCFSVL

Cytochrome P450 1A2 = molecular target: T2, Cytochrome P450 1A2 (Homo sapiens, UniProt P05177);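 further: PubChem cytochrome P450 panel assay, CYP1A2 panel member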
T2 sequence (P05177 whole entry): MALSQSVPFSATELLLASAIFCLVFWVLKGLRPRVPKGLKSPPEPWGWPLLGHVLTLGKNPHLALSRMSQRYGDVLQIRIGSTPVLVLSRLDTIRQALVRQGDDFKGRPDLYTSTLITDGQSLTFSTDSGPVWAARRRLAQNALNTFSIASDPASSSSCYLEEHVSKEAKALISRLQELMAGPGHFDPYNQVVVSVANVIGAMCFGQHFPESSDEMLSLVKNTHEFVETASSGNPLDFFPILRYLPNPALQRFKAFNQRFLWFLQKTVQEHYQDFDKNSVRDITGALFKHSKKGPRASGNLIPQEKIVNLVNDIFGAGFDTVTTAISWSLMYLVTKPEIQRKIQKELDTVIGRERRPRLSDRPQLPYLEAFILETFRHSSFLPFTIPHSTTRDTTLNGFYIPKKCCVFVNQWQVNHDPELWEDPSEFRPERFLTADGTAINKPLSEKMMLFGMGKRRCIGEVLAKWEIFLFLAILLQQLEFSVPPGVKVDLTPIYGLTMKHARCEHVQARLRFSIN

Cytochrome P450 3A4 = Cytochrome P450 3A4 (Homo sapiens, UniProt P08684);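 further: CYP3A4 tested as one member of a cytochrome P450 panel screen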
Cytochrome P450 2C9 = Cytochrome P450 2C9 (Homo sapiens, UniProt P11712)
[2] = molecular target: Neurotensin receptor type 1 (Homo sapiens, UniProt P30989); type: functional;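 further: Image-based confirmatory dose-response assay measuring agonist activity at NTR1; NTR1-expressing U2OS osteosarcoma cells imaged for beta-arrestin GFP spot formation; agonist potency where compounds increase beta-arrestin recruitment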
[3] = molecular target: T3, C-C chemokine receptor type 6 (Homo sapiens, UniProt P51684); assay: antagonism of CCR6 beta-arrestin recruitment – cell-based, luminescent beta-arrestin readout, dose response (AID 504728); type: functional
T3 sequence (P51684 whole entry): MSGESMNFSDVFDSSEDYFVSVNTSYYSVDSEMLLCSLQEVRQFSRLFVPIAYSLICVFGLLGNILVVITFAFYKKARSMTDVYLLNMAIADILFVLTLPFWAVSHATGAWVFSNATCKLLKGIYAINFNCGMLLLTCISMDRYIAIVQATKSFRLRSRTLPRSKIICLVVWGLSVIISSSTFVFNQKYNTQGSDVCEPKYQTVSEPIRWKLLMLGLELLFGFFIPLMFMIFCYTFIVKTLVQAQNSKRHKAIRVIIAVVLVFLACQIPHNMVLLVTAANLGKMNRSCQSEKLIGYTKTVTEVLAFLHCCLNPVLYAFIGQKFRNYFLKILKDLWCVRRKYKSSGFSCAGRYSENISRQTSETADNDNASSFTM

[4] = molecular target: Glucose-6-phosphate 1-dehydrogenase (Homo sapiens, UniProt P11413); assay: inhibition of Homo sapiens G6PD, dose series – biochemical, fluorescence, selectivity assay for P. falciparum G6PD inhibitor project, dose response (AID 504792); type: functional
Large T antigen = Large T antigen (Simian virus 40, UniProt P03070); type: functional, Betapolyomavirus macacae;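 further: Confirmatory-stage PubChem screen for compounds that inhibit SV40 T antigen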
Beta-galactosidase = Beta-galactosidase (Escherichia coli, UniProt Q8VNN2); assay: detection-enzyme interference by beta-gal modulators – biochemical, E. coli enzyme, set 3, artefact control for CCR6 antagonist project, dose response (AID 504712); type: functional
Protein skinhead-1 = molecular target: T4, Protein skinhead-1 (Caenorhabditis elegans, UniProt P34707); type: functional
T4 sequence (P34707 whole entry): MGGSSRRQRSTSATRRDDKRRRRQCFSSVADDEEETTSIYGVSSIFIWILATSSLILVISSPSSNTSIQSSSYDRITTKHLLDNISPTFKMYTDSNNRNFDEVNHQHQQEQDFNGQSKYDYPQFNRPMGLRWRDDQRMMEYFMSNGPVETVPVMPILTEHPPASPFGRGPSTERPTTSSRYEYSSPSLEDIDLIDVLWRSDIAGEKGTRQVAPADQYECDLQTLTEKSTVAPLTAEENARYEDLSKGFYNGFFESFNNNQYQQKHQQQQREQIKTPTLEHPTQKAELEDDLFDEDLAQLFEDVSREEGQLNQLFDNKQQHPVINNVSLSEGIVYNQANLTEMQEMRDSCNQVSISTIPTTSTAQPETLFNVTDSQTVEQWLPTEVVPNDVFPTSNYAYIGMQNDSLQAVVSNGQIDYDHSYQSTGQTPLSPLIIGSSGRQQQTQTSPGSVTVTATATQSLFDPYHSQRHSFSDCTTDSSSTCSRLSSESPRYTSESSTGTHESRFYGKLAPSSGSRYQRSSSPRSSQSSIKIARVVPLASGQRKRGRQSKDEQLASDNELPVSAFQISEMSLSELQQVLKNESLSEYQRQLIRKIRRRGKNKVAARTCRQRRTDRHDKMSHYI

[5] = molecular target: T5, Acyl-homoserine lactone acylase PvdQ (Pseudomonas aeruginosa (strain LESB58), UniProt Q9I194); assay: PvdQ acylase enzyme activity blockers – biochemical, fluorescence, plate reader and imaging, cherry-picks, dose response (AID 493231)
T5 sequence (Q9I194 whole entry): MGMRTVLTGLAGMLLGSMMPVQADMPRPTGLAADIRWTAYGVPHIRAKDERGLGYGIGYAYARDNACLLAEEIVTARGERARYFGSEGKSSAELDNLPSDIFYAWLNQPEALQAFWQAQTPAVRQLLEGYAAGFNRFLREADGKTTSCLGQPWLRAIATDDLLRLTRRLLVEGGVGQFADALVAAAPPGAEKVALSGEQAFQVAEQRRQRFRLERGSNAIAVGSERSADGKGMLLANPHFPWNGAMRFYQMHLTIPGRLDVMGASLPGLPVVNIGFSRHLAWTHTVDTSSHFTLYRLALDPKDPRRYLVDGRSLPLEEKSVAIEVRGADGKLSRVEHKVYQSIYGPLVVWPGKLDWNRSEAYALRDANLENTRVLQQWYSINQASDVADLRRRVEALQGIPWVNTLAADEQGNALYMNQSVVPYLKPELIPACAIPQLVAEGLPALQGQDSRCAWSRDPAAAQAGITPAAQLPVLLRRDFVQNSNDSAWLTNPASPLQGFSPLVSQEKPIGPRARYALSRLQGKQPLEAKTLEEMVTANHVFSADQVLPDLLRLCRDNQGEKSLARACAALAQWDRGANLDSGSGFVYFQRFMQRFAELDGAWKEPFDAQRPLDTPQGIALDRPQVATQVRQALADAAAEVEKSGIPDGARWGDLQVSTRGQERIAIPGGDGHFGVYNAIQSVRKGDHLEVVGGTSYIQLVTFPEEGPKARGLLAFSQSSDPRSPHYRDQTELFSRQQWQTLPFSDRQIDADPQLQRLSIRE

[6] = molecular target: FAD-linked sulfhydryl oxidase ALR (Homo sapiens, UniProt P55789); assay: ALR-catalysed DTT oxidation blockers – biochemical, H2O2 detection, luminescence, cherry-pick, dose response (AID 493248)
[7] = viability of HCT116 lacking mutant beta-catenin – cell-based, human colon tumor, dose response (AID 1045); type: functional;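 further: HCT116 colon tumor cells with beta catenin knocked out; cells exposed to compound for 60 hours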
BJ [8] = assay: cells; type: functional, cell-based; conditions: Homo sapiens
BJ [9] = assay: BJ-TERT-LT-ST fibroblast viability loss – cell-based, RAS-independent, luminescence, dose response (AID 1935); type: functional; conditions: Homo sapiens;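 further: BJ fibroblasts immortalized with TERT plus LT and ST oncogenes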
[10] = DRD fibroblast viability loss – cell-based, non-viral oncogenic, luminescence, dose response (AID 1934); type: functional; conditions: Homo sapiens
BJ [11] = assay: BJ-TERT fibroblast viability loss – cell-based, RAS-independent, luminescence, dose response (AID 1933); type: functional; conditions: Homo sapiens
[12] = viability of PTEN-deleted HCT116 cells – cell-based, HCT116 PTEN knockout, dose response (AID 1047); type: functional;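 further: HCT116 colon tumor cells with PTEN knocked out; cells exposed to compound for 60 hours before readout; potency for loss of cell viability measured by luminescence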
[13] = molecular target: Alkaline phosphatase, placental type (Homo sapiens, UniProt P05187); assay: human placental alkaline phosphatase inhibition – biochemical, luminescence, confirmation (AID 1512); type: functional
Chain of Alkaline phosphatase, placental type (P05187 whole entry): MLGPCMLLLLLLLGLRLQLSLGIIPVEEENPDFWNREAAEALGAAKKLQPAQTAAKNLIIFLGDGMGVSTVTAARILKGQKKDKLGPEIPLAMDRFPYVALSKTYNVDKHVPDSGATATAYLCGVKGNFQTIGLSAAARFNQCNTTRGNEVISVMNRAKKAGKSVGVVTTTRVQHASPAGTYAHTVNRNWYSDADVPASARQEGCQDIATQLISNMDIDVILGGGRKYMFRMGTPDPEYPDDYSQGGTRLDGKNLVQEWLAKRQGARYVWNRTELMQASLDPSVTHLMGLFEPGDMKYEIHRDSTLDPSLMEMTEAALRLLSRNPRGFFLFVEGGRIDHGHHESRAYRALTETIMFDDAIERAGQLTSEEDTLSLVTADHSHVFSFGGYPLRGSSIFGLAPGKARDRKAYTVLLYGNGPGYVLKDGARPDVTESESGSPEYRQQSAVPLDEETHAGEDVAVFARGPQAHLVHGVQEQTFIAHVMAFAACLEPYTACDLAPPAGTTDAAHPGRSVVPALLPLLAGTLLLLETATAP

Chain of SUMO-activating enzyme (Q9UBE0 whole entry): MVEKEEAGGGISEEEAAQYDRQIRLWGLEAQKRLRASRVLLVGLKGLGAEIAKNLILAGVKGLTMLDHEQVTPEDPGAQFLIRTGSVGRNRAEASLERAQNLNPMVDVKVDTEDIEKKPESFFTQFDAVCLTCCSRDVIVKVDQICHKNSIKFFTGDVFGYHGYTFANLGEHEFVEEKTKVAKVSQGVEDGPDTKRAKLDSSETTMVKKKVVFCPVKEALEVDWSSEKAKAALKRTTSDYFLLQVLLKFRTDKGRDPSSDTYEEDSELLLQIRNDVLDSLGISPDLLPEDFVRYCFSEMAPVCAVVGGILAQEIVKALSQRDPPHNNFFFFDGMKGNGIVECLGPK
Chain of SUMO-activating enzyme (Q9UBT2 whole entry): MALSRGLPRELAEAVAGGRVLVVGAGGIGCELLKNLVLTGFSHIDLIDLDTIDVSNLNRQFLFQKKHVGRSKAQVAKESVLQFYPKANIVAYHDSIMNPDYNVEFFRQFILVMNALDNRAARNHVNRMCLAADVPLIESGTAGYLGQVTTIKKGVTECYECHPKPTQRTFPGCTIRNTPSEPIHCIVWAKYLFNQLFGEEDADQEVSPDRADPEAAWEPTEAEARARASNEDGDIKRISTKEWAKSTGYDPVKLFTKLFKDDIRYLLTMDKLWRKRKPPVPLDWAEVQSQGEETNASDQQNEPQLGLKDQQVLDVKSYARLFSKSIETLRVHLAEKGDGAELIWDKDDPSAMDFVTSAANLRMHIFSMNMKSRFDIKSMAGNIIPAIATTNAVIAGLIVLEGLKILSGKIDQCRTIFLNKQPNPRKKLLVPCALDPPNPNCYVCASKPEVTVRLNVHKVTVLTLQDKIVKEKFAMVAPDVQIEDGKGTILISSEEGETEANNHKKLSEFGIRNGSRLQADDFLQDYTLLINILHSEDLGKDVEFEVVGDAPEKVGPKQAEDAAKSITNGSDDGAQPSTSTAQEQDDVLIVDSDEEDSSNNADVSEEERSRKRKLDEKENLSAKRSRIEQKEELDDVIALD
Chain of Large T antigen (P03070 whole entry): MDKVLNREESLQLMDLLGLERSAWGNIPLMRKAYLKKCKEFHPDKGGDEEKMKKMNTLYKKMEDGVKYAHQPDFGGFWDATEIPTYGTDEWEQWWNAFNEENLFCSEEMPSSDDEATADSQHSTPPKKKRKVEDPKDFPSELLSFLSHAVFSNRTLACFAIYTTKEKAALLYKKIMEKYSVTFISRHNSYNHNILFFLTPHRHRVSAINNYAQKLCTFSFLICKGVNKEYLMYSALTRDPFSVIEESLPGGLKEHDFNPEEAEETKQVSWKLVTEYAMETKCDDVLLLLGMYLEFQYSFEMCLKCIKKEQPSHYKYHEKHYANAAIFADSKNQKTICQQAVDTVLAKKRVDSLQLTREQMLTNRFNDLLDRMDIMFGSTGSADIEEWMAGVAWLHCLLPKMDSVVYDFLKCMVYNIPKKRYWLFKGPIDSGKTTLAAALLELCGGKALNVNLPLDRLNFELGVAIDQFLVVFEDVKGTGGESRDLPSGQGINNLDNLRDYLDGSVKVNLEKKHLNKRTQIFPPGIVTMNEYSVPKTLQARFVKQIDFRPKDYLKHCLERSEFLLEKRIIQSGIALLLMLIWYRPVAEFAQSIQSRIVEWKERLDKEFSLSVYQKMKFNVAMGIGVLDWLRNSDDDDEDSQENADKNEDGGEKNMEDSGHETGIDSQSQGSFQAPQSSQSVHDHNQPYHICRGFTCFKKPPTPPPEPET
Chain of FAD-linked sulfhydryl oxidase ALR (P55789 whole entry): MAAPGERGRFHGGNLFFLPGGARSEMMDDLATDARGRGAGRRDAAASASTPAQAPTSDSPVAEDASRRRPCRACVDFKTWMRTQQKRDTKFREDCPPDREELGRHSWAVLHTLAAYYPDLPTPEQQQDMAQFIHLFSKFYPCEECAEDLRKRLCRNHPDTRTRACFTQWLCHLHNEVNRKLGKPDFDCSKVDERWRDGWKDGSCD
Chain of Glucose-6-phosphate 1-dehydrogenase (P11413 whole entry): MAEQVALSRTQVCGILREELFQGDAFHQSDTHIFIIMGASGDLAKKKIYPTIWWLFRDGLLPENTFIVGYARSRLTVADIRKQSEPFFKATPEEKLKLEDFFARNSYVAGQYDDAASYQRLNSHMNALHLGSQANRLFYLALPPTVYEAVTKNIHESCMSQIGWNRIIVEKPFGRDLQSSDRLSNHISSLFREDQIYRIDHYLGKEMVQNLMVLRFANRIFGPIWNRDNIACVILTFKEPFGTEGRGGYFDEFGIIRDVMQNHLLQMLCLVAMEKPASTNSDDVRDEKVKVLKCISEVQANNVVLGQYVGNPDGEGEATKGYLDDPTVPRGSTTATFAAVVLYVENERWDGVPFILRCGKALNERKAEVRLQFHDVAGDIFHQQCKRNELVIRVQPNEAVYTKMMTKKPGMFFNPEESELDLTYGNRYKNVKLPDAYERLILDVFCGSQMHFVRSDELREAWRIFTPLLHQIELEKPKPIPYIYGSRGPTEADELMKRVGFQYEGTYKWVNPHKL
Chain of Beta-galactosidase (Q8VNN2 whole entry): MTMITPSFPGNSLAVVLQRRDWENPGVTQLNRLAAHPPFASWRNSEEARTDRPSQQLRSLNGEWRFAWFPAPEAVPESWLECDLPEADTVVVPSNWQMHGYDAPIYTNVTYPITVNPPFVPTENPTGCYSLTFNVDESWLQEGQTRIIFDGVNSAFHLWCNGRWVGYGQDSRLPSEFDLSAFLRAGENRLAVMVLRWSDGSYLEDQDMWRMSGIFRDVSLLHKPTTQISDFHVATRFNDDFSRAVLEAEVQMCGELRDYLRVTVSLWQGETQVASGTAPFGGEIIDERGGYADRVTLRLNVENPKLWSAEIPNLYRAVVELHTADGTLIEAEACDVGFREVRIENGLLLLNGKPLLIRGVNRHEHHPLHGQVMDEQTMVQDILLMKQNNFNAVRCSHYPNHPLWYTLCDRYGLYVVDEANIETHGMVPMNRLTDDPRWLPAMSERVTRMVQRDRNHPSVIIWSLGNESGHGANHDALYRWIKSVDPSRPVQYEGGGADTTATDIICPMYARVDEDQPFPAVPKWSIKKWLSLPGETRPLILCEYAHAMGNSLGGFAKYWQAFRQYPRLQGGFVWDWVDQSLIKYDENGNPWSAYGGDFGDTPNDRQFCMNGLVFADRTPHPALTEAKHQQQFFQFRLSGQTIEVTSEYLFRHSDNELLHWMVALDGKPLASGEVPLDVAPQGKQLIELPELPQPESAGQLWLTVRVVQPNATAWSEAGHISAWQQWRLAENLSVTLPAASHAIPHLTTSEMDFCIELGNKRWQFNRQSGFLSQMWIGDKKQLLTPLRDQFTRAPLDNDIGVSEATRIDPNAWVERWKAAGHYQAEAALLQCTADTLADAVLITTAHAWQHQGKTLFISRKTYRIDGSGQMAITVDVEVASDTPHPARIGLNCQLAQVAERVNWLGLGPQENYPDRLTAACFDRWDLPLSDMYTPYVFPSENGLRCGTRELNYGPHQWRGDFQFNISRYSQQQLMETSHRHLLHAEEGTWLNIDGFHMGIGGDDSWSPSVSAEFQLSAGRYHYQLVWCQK
Chain of Neurotensin receptor type 1 (P30989 whole entry): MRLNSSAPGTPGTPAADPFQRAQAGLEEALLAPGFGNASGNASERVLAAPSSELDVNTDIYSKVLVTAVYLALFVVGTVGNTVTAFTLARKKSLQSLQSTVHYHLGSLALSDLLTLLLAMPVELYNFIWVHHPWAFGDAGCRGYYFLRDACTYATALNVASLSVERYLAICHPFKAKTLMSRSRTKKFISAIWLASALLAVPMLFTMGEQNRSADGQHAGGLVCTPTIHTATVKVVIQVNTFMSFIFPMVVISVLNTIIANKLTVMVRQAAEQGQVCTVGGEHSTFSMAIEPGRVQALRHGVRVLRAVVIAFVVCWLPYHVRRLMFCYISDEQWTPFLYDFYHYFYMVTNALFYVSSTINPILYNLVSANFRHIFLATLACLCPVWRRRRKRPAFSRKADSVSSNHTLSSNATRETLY
Chain of Cytochrome P450 2C9 (P11712 whole entry): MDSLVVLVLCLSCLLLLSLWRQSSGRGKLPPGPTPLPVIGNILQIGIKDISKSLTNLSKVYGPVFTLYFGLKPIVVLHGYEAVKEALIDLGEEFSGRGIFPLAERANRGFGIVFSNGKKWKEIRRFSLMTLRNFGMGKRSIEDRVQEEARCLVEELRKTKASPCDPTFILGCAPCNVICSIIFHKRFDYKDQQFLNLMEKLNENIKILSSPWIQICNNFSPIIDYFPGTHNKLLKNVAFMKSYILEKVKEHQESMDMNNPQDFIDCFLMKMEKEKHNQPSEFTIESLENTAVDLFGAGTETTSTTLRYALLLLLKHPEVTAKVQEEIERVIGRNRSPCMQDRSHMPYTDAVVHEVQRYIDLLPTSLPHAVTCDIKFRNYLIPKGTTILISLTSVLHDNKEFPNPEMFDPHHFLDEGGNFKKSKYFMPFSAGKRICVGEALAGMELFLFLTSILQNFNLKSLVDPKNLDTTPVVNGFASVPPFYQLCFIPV

SMILES: Cc1ccccc1NC(=O)c1ccc(N/N=C/c2ccccc2O)c([N+](=O)[O-])c1
IC50 (SUMO-activating enzyme): 67.3 µM (active)
IC50 [1]: 18.9 µM (not active)
AC50 (Cytochrome P450 1A2): 14.1 µM (inconclusive)
AC50 (Cytochrome P450 3A4): 4.47 µM (inconclusive)
AC50 (Cytochrome P450 2C9): inconclusive

SMILES: COc1ccccc1N1C(=O)C=C(Sc2nc(C)cc(C)n2)C1=O
IC50 [3]: > 66.6 µM (inactive)
IC50 [4]: > 80 µM (inactive)
IC50 (Large T antigen): 24.3 µM (active)
IC50 (Beta-galactosidase): > 66.6 µM (inactive)

SMILES: C#CCSc1ncc(-c2ccccc2)cn1
IC50 (Protein skinhead-1): 15.3 µM (active)
AC50 [5]: 6.14 µM (active)

SMILES: Cn1nc(-c2ccc(Cl)cc2)c2cc(C(=O)NCCCN3CCCC3)sc21
AC50 [6]: 6.39 µM (active)
EC50 [7]: 4.01 µM (active)
EC50 (BJ [8]): 23.1 µM (active)
EC50 (BJ [9]): > 150 µM (inconclusive)
EC50 [10]: 12.4 µM (active)
EC50 (BJ [11]): 9.41 µM (active)
EC50 [12]: 4.65 µM (active)

Continued, values first:

EC50 [2]: 15.9 µM (active)
SMILES: COc1cccc(OC)c1C(=O)Oc1ccc2c(c1)O/C(=C\c1ccncc1)C2=O

IC50 [13]: > 100 µM (inactive)
SMILES: COc1cccc(C=NNc2nn3cnnc3c3ccccc23)c1O
